In patent publication US11542316B2, “S-Arrestin peptides and therapeutic uses thereof” (APITOPE INTERNATIONAL NV, priority 2017, dated 2023):
Ends that are not written are not given here.

Legend:
[1] = tested on: SAg-specific hybridoma cells / T cell line with VAVY APC; assay: Antigen Processing Independent Presentation System (APIPS) assay, fresh or fixed VAVY APC; format: cell-based, DR3 mice; conditions: DR3 hybridoma clone (IL-2, 48 h) or T cell line (IFN-γ, 24 h)
Protocol: (§1) FIG. 2: identification of apitopes within HIP-115. (A) DR3 mice were immunized with SAg and hybridomas were generated. 5×10^4 SAg-specific hybridoma cells were cultured with 5×10^4 fresh or fixed commercial APC (VAVY) cells. T cell proliferation was measured by IL-2 ELISA on supernatants collected after 48 h. The graph represents the mean of duplicate measurements±SEM. (B) DR3 mice were immunized with HIP-115 and a T cell line was established. Ten days after immunization the LN and spleens were harvested and cultured with different concentrations of peptide (0.1-1-2.5 and 5 μg/ml); 2×10^6 cells/ml APC+1×10^6 cells/ml CD4 T cells per well. At day 7 the cells were re-stimulated with the same concentrations of peptide. On day 14 an APIPS test was done using commercial APC (VAVY). After 24 h, antigen-induced T cell activation was measured by IFN-γ ELISA and shown as IFN-γ concentration (pg/ml). The graph represents the mean of duplicate measurements±SEM. LN, lymph nodes; APC, Antigen presenting cell; APIPS, Antigen Processing Independent Presentation System.
as §1, with “3:” for “2:”, “HIP-241125.” for “HIP-115.”, “HIP-241125+HIP-24DG” for “HIP-115”
(§2) FIG. 5: Identification of apitopes within HIP-17GN. DR3 mice were immunized with HIP-17GN and a T cell line was established. Ten days after immunization the LN and spleens were harvested and cultured with different concentrations of peptide (0.1-1-2.5 and 5 μg/ml); 2×10^6 cells/ml APC+1×10^6 cells/ml CD4 T cells per well. At day 7 the cells were re-stimulated with the same concentrations of peptide. On day 14 an APIPS test was done using commercial APC (VAVY). After 24 h, antigen-induced T cell activation was measured by IFN-γ ELISA and shown as OD values. The graph represents the mean of triplicate measurements±SEM. LN, lymph nodes; APC, Antigen presenting cell; APIPS, Antigen Processing Independent Presentation System.
as §2, with “6:” for “5:”, “HIP-12AK.” for “HIP-17GN.”, “HIP-12AK” for “HIP-17GN”, “IFN-γ concentration (pg/ml).” for “OD values.”, “duplicate” for “triplicate”
Antigen-specific clones or TCL were tested for their reactivity to the peptides, presented by fixed or not fixed (fresh) cells (VAVY or MGAR) (=APCs). 5×10^4 cells from the individual clones were cultured with 10 μg/ml peptide and 5×10^4 fixed or fresh APCs. […]

[2] = tested on: LN cells and splenocytes upon SAg or peptide restimulation; assay: Ex vivo tolerization experiment, DR3tg mice; format: in vivo; conditions: DR3 mice, IFN-γ; for tolerization against SAg: escalating dose regime s.c.
Protocol: FIG. 7: Ex vivo tolerisation protocol. Mice are injected subcutaneously in the flank with 0.1 μg/ml, 1 μg/ml and 10 μg/ml peptide on days −15, −13 and −11, followed by 3 injections of 100 μg/ml on days −8, −6 and −4 (escalating dose regime). On day 0, mice are immunized subcutaneously at the base of the tail with SAg/CFA or peptide/CFA. Mice are sacrificed 10 days after immunization to measure proliferation of LN cells and splenocytes upon SAg or peptide restimulation. LN, lymph nodes.
FIG. 8: Ex vivo tolerance induction by HIP-115NE3-KKK apitope. DR3 mice are injected subcutaneously in the flank with 0.1 μg/ml, 1 μg/ml and 10 μg/ml HIP-115NE3-KKK on days −15, −13 and −11, followed by 3 injections of 100 μg/ml on days −8, −6 and −4 (escalating dose regime). On day 0, mice are immunized subcutaneously at the base of the tail with HIP-115/CFA. Mice are sacrificed 10 days after immunization to measure proliferation of LN cells and splenocytes upon SAg or peptide restimulation. Data represent mean±SEM of the concentration or OD values for the PBS-treated mice (black lines) and peptide-treated mice (color lines). Two-way ANOVA was used to measure overall treatment effects on T cell activation and p-values are written in the graphs. Bonferonni post-hoc testing was used and significant differences are indicated in the graphs (* p<0.05; **** p<0.0001). LN, lymph nodes. (A) Tolerisation against SAg in LN. IFN-γ production expressed as IFN-γ concentration (pg/ml). (B) Tolerisation against SAg in spleen. IFN-γ production expressed as IFN-γ concentration (pg/ml). (C) Tolerisation against HIP-115 and HIP-115NE3 peptides in LN. IFN-γ production expressed as OD values. (D) Tolerisation against HIP-115 and HIP-115NE3 peptides in spleen. IFN-γ production expressed as OD values.
FIG. 9: Ex vivo tolerance induction by HIP-11B apitope. DR3 mice are injected subcutaneously in the flank with 0.1 μg/ml, 1 μg/ml and 10 μg/ml HIP-11B on days −15, −13 and −11, followed by 3 injections of 100 μg/ml on days −8, −6 and −4 (escalating dose regime). On day 0, mice are immunized subcutaneously at the base of the tail with HIP-11B/CFA. Mice are sacrificed 10 days after immunization to measure proliferation of LN cells and splenocytes upon SAg or peptide restimulation. Data represent mean±SEM of the concentration values for the PBS-treated mice (black lines) and peptide-treated mice (color lines). IFN-γ production expressed as IFN-γ concentration (pg/ml). Two-way ANOVA was used to measure overall treatment effects on T cell activation and p-values are written in the graphs. Bonferonni post-hoc testing was used and significant differences are indicated in the graphs (* p<0.05; **** p<0.0001). LN, lymph nodes. (A) Tolerisation against SAg in LN. (B) Tolerisation against SAg in spleen. (C) Tolerisation against HIP-11B peptide in LN. (D) Tolerisation against HIP-11B peptide in spleen.
FIG. 10: Ex vivo tolerance induction by HIP-24DG apitope. DR3 mice are injected subcutaneously in the flank with 0.1 μg/ml, 1 μg/ml and 10 μg/ml HIP-24DG on days −15, −13 and −11, followed by 3 injections of 100 μg/ml on days −8, −6 and −4 (escalating dose regime). On day 0, mice are immunized subcutaneously at the base of the tail with HIP-24DG+HIP-24HM/CFA. Mice are sacrificed 10 days after immunization to measure proliferation of LN cells and splenocytes upon SAg or peptide restimulation. Data represent mean±SEM of the OD values for the PBS-treated mice (black lines) and peptide-treated mice (color lines). IFN-γ production expressed as OD values. LN, lymph nodes. Two-way ANOVA was used to measure overall treatment effects on T cell activation and p-values are written in the graphs. Bonferonni post-hoc testing was used and significant differences are indicated in the graphs (* p<0.05; ** p<0.01; *** p<0.001: **** p<0.0001). LN, lymph nodes. (A) Tolerisation against SAg in LN. (B) Tolerisation against HIP-24DG in LN. (C) Tolerisation against HIP-24HM2 peptide in LN. […]

[3] = Solubility of peptides; format: physicochemical
Protocol: The solubility of potential apitopes from S—Ag are determined by visual observations and turbidity measurement by UV spectrophotometry at 280 nm. The solubility of the peptides can be modified by adding amino acids ‘GKK’ or ‘KKK’ (or similar) on both the C- and N-terminus of the sequence. Modifications that may be suitable are described in WO2014/072958 (which is hereby incorporated by reference).
For some of these peptides, the parental peptides were insoluble, and solubility is a critical parameter for them to work as a tolerogenic peptide. Several end-terminal modifications can be used and as example used here they were improved by addition of 3 lysines before and after the original peptide sequence (labelled as ‘-KKK’ versions).

Row | Substance | behaves as apitope (response to peptide presented by fresh or fixed APC) [1] | other results
1 | ERRGIALDGKIKH-NH2 [HIP-11AC1, ERRGIALDGKIKH] | behave as apitopes | 
2 | FKKISRDKSVTIY-NH2 [HIP-115NE2, FKKISRDKSVTIY] | behave as apitopes | 
3 | GILVSYQIKVK-NH2 [HIP-12G1, GILVSYQIKVK] | behave as apitopes | 
4 | HIP-17K1-KKK: '-KKK' version (3 lysines before and after the sequence) of HIP-17K1; its sequence is not printed (KKKTFRRDLYFSRVQKKK) | behave as apitopes | 
5 | HVIFKKISRDKSVTIYLGN-NH2 [HIP-115NE, HVIFKKISRDKSVTIYLGN] | behave as apitopes | 
6 | KKISRDKSVTI-NH2 [HIP-115NE1, KKISRDKSVTI] | behave as apitopes | 
7 | KKKVIGLTFRRDLYFSRVQVYPPVGKKK-NH2 [HIP-17GN-KKK] | behave as apitopes | tolerization against SAg ([2]; spleen): tolerization induced
8 | KKKVLGILVSYQIKVKLTKKK-NH2 [HIP-12E-KKK] | behave as apitopes | 
9 | LTFRRDLYFSRVQVY-NH2 [HIP-17J, LTFRRDLYFSRVQVY] | behave as apitopes | 
10 | LTLLPLLANNRERRGIALDG-NH2 [HIP-24HM] | behave as apitopes | 
11 | LTLLPLLANNRERRGIALDGKIKHEDTNLASSTIIKEG-NH2 [HIP-241125] | behave as apitopes | 
12 | NRERRGIALDGKIKHED-NH2 [HIP-11AC, NRERRGIALDGKIKHED] | behave as apitopes | 
13 | PLLANNRERRGI-NH2 [HIP-24HM2, PLLANNRERRGI] | behave as apitopes | solubility [3]: soluble
14 | RERRGIALDGKIKHE-NH2 [HIP-11B, RERRGIALDGKIKHE] | behave as apitopes | tolerization against the peptide itself / peptides of the same region ([2]; LN): tolerization induced; tolerization against SAg ([2]; LN): tolerization induced; tolerization against the peptide itself ([2]; spleen): tolerization induced; tolerization against SAg ([2]; spleen): tolerization induced
15 | VIGLTFRRDLYFSRVQVYPPVG-NH2 [HIP-17GN] | behave as apitopes | 
